Values quoted from earlier work as cited in patent US9250230B2, “Using induced pluripotent stem cells for screening anti-neoplastic agents” (priority 2011, dated 2016).

Assays:
[1] = tested on: iPS reprogramming; settings: iPS reprogramming of somatic cells
[2] = tested on: chemical reprogramming to CiPSCs; settings: TTNPB added to small-molecule reprogramming

Structure (SMILES): O=CC[C@@H](O)[C@H](O)[C@H](O)CO [2-DG, 2-deoxy-D-glucose]
- effect on reprogramming efficiency [1]: inhibited the reprogramming efficiency

Structure (SMILES): O=C(CO)[C@@H](O)[C@H](O)[C@H](O)COP(=O)(O)O [F6P, D-fructose-6-phosphate]
- effect on reprogramming efficiency [1]: increased reprogramming efficiency

Structure (SMILES): C/C(=C\c1ccc(C(=O)O)cc1)c1ccc2c(c1)C(C)(C)CCC2(C)C [TTNPB]
- enhancement of reprogramming efficiency of chemical reprogramming [2]: up to 40 fold
